In PubChem BioAssay AID248 (DTP/NCI, 2004):
Several values for one entry are separate records, joined by “and”; a condition that tells them apart may be missing. Identical values can stand only once. Toxic doses and inconclusive results are not listed.

Test system: L1210 leukemia ip in BDF1 mice, survival T/C
Assay: NCI In Vivo Anticancer Drug Screen. Data for tumor model L1210 Leukemia (intraperitoneal) in B6D2F1 (BDF1) mice
Settings: higher = longer survival
In short: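 In this screen, tumor-bearing mice given compound are compared to those given vehicle, and their survival values are reported as a treated-to-control quotient.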

[1] = endpoint: mean survival time, dose: 100.0 mg/kg/injection, schedule: Q01DX001 (ip), vehicle: saline
[2] = endpoint: mean survival time, dose: 200.0 mg/kg/injection, schedule: Q01DX001 (ip), vehicle: saline
[3] = endpoint: mean survival time, dose: 100.0 mg/kg/injection, schedule: Q04DX002 (ip), vehicle: Klucel (hydroxypropylcellulose) (HPC)
[4] = endpoint: mean survival time, dose: 200.0 mg/kg/injection, schedule: Q04DX002 (ip), vehicle: Klucel (hydroxypropylcellulose) (HPC)
[5] = endpoint: mean survival time, dose: 400.0 mg/kg/injection, schedule: Q04DX002 (ip), vehicle: Klucel (hydroxypropylcellulose) (HPC)

CCCN(C)/N=N/c1nc[nH]c1C(N)=O
T/C (endpoint: mean survival time, dose: 22.0 mg/kg/injection, schedule: Q01DX009 (ip), vehicle: carboxymethylcellulose (CMC)): 120 % of control
T/C (endpoint: mean survival time, dose: 37.5 mg/kg/injection, schedule: Q01DX Z (ip), vehicle: carboxymethylcellulose (CMC)): 151 % of control
T/C (endpoint: mean survival time, dose: 50.0 mg/kg/injection, schedule: Q01DX009 (ip), vehicle: carboxymethylcellulose (CMC)): 151 % of control
T/C (endpoint: mean survival time, dose: 50.0 mg/kg/injection, schedule: Q01DX Z (ip), vehicle: carboxymethylcellulose (CMC)): 158 % of control
T/C (endpoint: mean survival time, dose: 75.0 mg/kg/injection, schedule: Q01DX009 (ip), vehicle: carboxymethylcellulose (CMC)): 157 % of control
T/C (endpoint: mean survival time, dose: 88.0 mg/kg/injection, schedule: Q01DX001 (ip), vehicle: carboxymethylcellulose (CMC)): 106 % of control
T/C (endpoint: mean survival time, dose: 89.0 mg/kg/injection, schedule: Q01DX001 (ip), vehicle: carboxymethylcellulose (CMC)): 117 % of control
T/C (endpoint: mean survival time, dose: 100.0 mg/kg/injection, schedule: Q01DX009 (ip), vehicle: carboxymethylcellulose (CMC)): 152 % of control
T/C (endpoint: mean survival time, dose: 133.0 mg/kg/injection, schedule: Q01DX001 (ip), vehicle: carboxymethylcellulose (CMC)): 101 % of control and 124 % of control
T/C (endpoint: mean survival time, dose: 200.0 mg/kg/injection, schedule: Q01DX001 (ip), vehicle: carboxymethylcellulose (CMC)): 103 % of control
T/C (endpoint: mean survival time, dose: 300.0 mg/kg/injection, schedule: Q01DX001 (ip), vehicle: carboxymethylcellulose (CMC)): 104 % of control and 117 % of control
T/C (endpoint: median survival time, dose: 12.5 mg/kg/injection, schedule: Q01DX009 (ip), vehicle: steriod suspending solution): 116 % of control and 122 % of control
T/C (endpoint: median survival time, dose: 50.0 mg/kg/injection, schedule: Q01DX009 (ip), vehicle: steriod suspending solution): 166 % of control
T/C (endpoint: median survival time, dose: 100.0 mg/kg/injection, schedule: Q01DX009 (ip), vehicle: steriod suspending solution): 122 % of control

O=C(O)c1cc([N+](=O)[O-])ccc1Oc1cccc([N+](=O)[O-])c1
T/C (endpoint: mean survival time, dose: 222.0 mg/kg/injection, schedule: Q01DX Z (ip), vehicle: methylcellulose (MC)): 93 % of control
T/C (endpoint: mean survival time, dose: 333.0 mg/kg/injection, schedule: Q01DX Z (ip), vehicle: methylcellulose (MC)): 90 % of control
T/C (endpoint: mean survival time, dose: 500.0 mg/kg/injection, schedule: Q01DX Z (ip), vehicle: methylcellulose (MC)): 93 % of control

NC(=S)N=Nc1c(O)[nH]c(=O)[nH]c1=O
T/C (endpoint: mean survival time, dose: 12.5 mg/kg/injection, schedule: Q01DX009 (ip), vehicle: saline with Tween-80): 98 % of control
T/C (endpoint: mean survival time, dose: 12.5 mg/kg/injection, schedule: Q04DX003 (ip), vehicle: saline with Tween-80): 97 % of control
T/C (endpoint: mean survival time, dose: 25.0 mg/kg/injection, schedule: Q01DX009 (ip), vehicle: saline with Tween-80): 104 % of control
T/C (endpoint: mean survival time, dose: 25.0 mg/kg/injection, schedule: Q04DX003 (ip), vehicle: saline with Tween-80): 92 % of control
T/C (endpoint: mean survival time, dose: 50.0 mg/kg/injection, schedule: Q01DX009 (ip), vehicle: saline with Tween-80): 104 % of control
T/C (endpoint: mean survival time, dose: 50.0 mg/kg/injection, schedule: Q04DX003 (ip), vehicle: saline with Tween-80): 96 % of control

CCOC(=O)c1ccc(Oc2ncc([N+](=O)[O-])s2)cc1
T/C (endpoint: mean survival time, dose: 1.56 mg/kg/injection, schedule: Q01DX001 (ip), vehicle: saline): 107 % of control
T/C (endpoint: mean survival time, dose: 1.56 mg/kg/injection, schedule: Q04DX003 (ip), vehicle: saline): 96 % of control
T/C (endpoint: mean survival time, dose: 3.12 mg/kg/injection, schedule: Q01DX001 (ip), vehicle: saline): 110 % of control
T/C (endpoint: mean survival time, dose: 3.12 mg/kg/injection, schedule: Q04DX003 (ip), vehicle: saline): 100 % of control
T/C (endpoint: mean survival time, dose: 6.25 mg/kg/injection, schedule: Q01DX001 (ip), vehicle: saline): 98 % of control
T/C (endpoint: mean survival time, dose: 6.25 mg/kg/injection, schedule: Q04DX003 (ip), vehicle: saline): 96 % of control
T/C (endpoint: mean survival time, dose: 9.2 mg/kg/injection, schedule: Q04DX003 (ip), vehicle: saline): 103 % of control
T/C (endpoint: mean survival time, dose: 14.0 mg/kg/injection, schedule: Q04DX003 (ip), vehicle: saline): 98 % of control
T/C (endpoint: mean survival time, dose: 21.0 mg/kg/injection, schedule: Q04DX003 (ip), vehicle: saline): 96 % of control
T/C (endpoint: mean survival time, dose: 29.0 mg/kg/injection, schedule: Q04DX003 (ip), vehicle: saline with Tween-80): 103 % of control
T/C (endpoint: mean survival time, dose: 29.0 mg/kg/injection, schedule: Q04DX003 (ip), vehicle: saline): 93 % of control
T/C (endpoint: mean survival time, dose: 45.0 mg/kg/injection, schedule: Q04DX003 (ip), vehicle: saline): 102 % of control
T/C (endpoint: mean survival time, dose: 65.0 mg/kg/injection, schedule: Q04DX003 (ip), vehicle: saline with Tween-80): 86 % of control

CC(=O)Nc1ccc(/C=N/Nc2ccccc2)cc1
T/C (endpoint: mean survival time, dose: 100.0 mg/kg/injection, schedule: Q01DX009 (ip), vehicle: Klucel (hydroxypropylcellulose) (HPC)): 101 % of control
T/C (endpoint: mean survival time, dose: 200.0 mg/kg/injection, schedule: Q01DX009 (ip), vehicle: Klucel (hydroxypropylcellulose) (HPC)): 103 % of control
T/C (endpoint: mean survival time, dose: 400.0 mg/kg/injection, schedule: Q01DX009 (ip), vehicle: Klucel (hydroxypropylcellulose) (HPC)): 101 % of control

CN=C(NC#N)NCCSCc1nc[nH]c1C
T/C (endpoint: median survival time, dose: 12.0 mg/kg/injection, schedule: Q01DX009 (ip), vehicle: Klucel (hydroxypropylcellulose) (HPC)): 100 % of control
T/C (endpoint: median survival time, dose: 25.0 mg/kg/injection, schedule: Q01DX009 (ip), vehicle: Klucel (hydroxypropylcellulose) (HPC)): 101 % of control
T/C (endpoint: median survival time, dose: 50.0 mg/kg/injection, schedule: Q01DX009 (ip), vehicle: Klucel (hydroxypropylcellulose) (HPC)): 106 % of control
T/C (endpoint: median survival time, dose: 100.0 mg/kg/injection, schedule: Q01DX009 (ip), vehicle: Klucel (hydroxypropylcellulose) (HPC)): 106 % of control
T/C (endpoint: median survival time, dose: 200.0 mg/kg/injection, schedule: Q01DX009 (ip), vehicle: Klucel (hydroxypropylcellulose) (HPC)): 108 % of control
T/C (endpoint: median survival time, dose: 400.0 mg/kg/injection, schedule: Q01DX009 (ip), vehicle: Klucel (hydroxypropylcellulose) (HPC)): 104 % of control

Nc1ncc(C(=O)c2ccccc2)cc1Br
T/C (endpoint: mean survival time, dose: 100.0 mg/kg/injection, schedule: Q04DX003 (ip), vehicle: Klucel (hydroxypropylcellulose) (HPC)): 97 % of control
T/C (endpoint: mean survival time, dose: 200.0 mg/kg/injection, schedule: Q04DX003 (ip), vehicle: Klucel (hydroxypropylcellulose) (HPC)): 97 % of control
T/C (endpoint: mean survival time, dose: 400.0 mg/kg/injection, schedule: Q04DX003 (ip), vehicle: Klucel (hydroxypropylcellulose) (HPC)): 97 % of control

C[N+]1([O-])C2CCC1CC(OC(=O)C(O)c1ccccc1)C2 (centres undefined)
T/C (endpoint: mean survival time, dose: 75.0 mg/kg/injection, schedule: Q01DX001 (ip), vehicle: saline): 110 % of control
T/C (endpoint: mean survival time, dose: 150.0 mg/kg/injection, schedule: Q01DX001 (ip), vehicle: saline): 100 % of control
T/C (endpoint: mean survival time, dose: 300.0 mg/kg/injection, schedule: Q01DX001 (ip), vehicle: saline): 95 % of control

CC(C)(CC(N)=O)C(=O)O
T/C (endpoint: mean survival time, dose: 50.0 mg/kg/injection, schedule: Q01DX001 (ip), vehicle: saline): 102 % of control
T/C [1]: 115 % of control
T/C [2]: 113 % of control
T/C (endpoint: mean survival time, dose: 400.0 mg/kg/injection, schedule: Q01DX001 (ip), vehicle: saline): 110 % of control

COc1cccc(C(=O)O)c1[N+](=O)[O-]
T/C (endpoint: mean survival time, dose: 50.0 mg/kg/injection, schedule: Q01DX001 (ip), vehicle: other): 103 % of control
T/C (endpoint: mean survival time, dose: 100.0 mg/kg/injection, schedule: Q01DX001 (ip), vehicle: other): 97 % of control
T/C [3]: 106 % of control
T/C (endpoint: mean survival time, dose: 200.0 mg/kg/injection, schedule: Q01DX001 (ip), vehicle: other): 115 % of control
T/C [4]: 95 % of control
T/C (endpoint: mean survival time, dose: 400.0 mg/kg/injection, schedule: Q01DX001 (ip), vehicle: other): 97 % of control
T/C [5]: 88 % of control

Cc1ccc(S(=O)(=O)NC(=O)Nc2cc(Cl)c(Cl)cc2C)cc1
T/C (endpoint: mean survival time, dose: 50.0 mg/kg/injection, schedule: Q01DX009 (ip), vehicle: saline): 100 % of control and 108 % of control
T/C (endpoint: mean survival time, dose: 100.0 mg/kg/injection, schedule: Q01DX009 (ip), vehicle: saline with Tween-80): 94 % of control and 91 % of control
T/C (endpoint: mean survival time, dose: 100.0 mg/kg/injection, schedule: Q01DX009 (ip), vehicle: saline): 97 % of control and 88 % of control
T/C (endpoint: mean survival time, dose: 100.0 mg/kg/injection, schedule: Q04DX002 (ip), vehicle: saline with Tween-80): 100 % of control and 110 % of control
T/C (endpoint: mean survival time, dose: 200.0 mg/kg/injection, schedule: Q01DX009 (ip), vehicle: saline with Tween-80): 93 % of control
T/C (endpoint: mean survival time, dose: 200.0 mg/kg/injection, schedule: Q01DX009 (ip), vehicle: saline): 94 % of control and 86 % of control
T/C (endpoint: mean survival time, dose: 200.0 mg/kg/injection, schedule: Q04DX002 (ip), vehicle: saline with Tween-80): 93 % of control and 96 % of control
T/C (endpoint: mean survival time, dose: 400.0 mg/kg/injection, schedule: Q01DX009 (ip), vehicle: saline): 93 % of control
T/C (endpoint: mean survival time, dose: 400.0 mg/kg/injection, schedule: Q04DX002 (ip), vehicle: saline with Tween-80): 100 % of control and 104 % of control

CC1(C)N=C(N)N=C(N)N1c1cccc(S(=O)(=O)F)c1
T/C (endpoint: mean survival time, dose: 0.8 mg/kg/injection, schedule: Q01DX009 (ip), vehicle: saline): 95 % of control
T/C (endpoint: mean survival time, dose: 4.0 mg/kg/injection, schedule: Q01DX009 (ip), vehicle: saline): 95 % of control
T/C (endpoint: mean survival time, dose: 20.0 mg/kg/injection, schedule: Q01DX009 (ip), vehicle: saline): 100 % of control
T/C [1]: 100 % of control
T/C [2]: 102 % of control

O=C(O)c1c2c(nc3ccccc13)CCC(C(=O)O)C2 (centres undefined)
T/C [3]: 95 % of control
T/C [4]: 95 % of control
T/C [5]: 103 % of control
